Measured values taken from patent publication US4885361A, “Sulfated oligosaccharides” (Hoffmann-La Roche Inc., priority 1987, dated 1989).

Key:
Factor Xa [1] = assay: Inhibition of Factor Xa in the Chromogenic Substrate Assay; assay type: biochemical; conditions: Factor Xa 2.8 nkat/ml, Bz-CO-Ile-Glu-Arg-NH.pNA
Factor Xa [2] = assay: anti-Xa Clotting Assay; assay type: biochemical; conditions: concentration which leads to a coagulation time double the control value; citrated plasma, 37° C.
Protocol: anti-Xa Clotting Assay: 25 μl of citrated plasma having various concentrations of test compound are mixed with 75 μl of Factor Xa (the activated blood coagulation factor X) diluted 1:100 with 0.63% citrated buffer (pH 7.3) which contains 41 mM imidazole, 82 mM NaCl and 0.1% albumin. After warming to 37° C. for 2 minutes 200 μl of a 1:1 mixture of Factor X Deficient Plasma and Platelet Substitute are added and the mixture is incubated at 37° C. for 20 seconds. After the addition of 100 μl of prewarmed 50 mM calcium chloride solution the coagulation time is measured in a Fibrometer.
(§1) The activity of the test compound is given as the IC50 which is the concentration [μg/ml] which leads to a coagulation time which is double the control value.

[3] = system: Swiss 3T3 mouse fibroblastoid cells; assay: anti-proliferative activity, Swiss 3T3 cells; assay type: cell-based; conditions: net proliferation, cells collected on the 4th day, 10% calf serum
Protocol: (§2) Cells of different origin (Swiss 3T3 mouse fibroblastoid cells, HSMC: human smooth muscle cells and endothelial cells, both isolated from human umbilical cord veins) in RPMI 1640 medium containing 10% calf serum (Swiss 3T3 cells), 15% fetal calf serum (HSMC) or 15% fetal calf serum plus 300 μg/ml of endothelial cell growth supplement (endothelial cells) were cultivated at 37° C. in water-saturated air/5% Co2. Confluent cultures were then washed once with HBSS, removed with 0.05% trypsin/0.02%EDTA and collected by centrifugation. The cells were applied to cell culture plates with a density of 5000 cells/culture and the test compound was added one hour later. The cells were then incubated at 37° C. in air/5% CO2 and collected on the 4th day (Swiss 3T3) and on the 7th day (HSMC and endothelial cells). In order to determine th number of cells, these were washed once with HBSS and adhering cells were incubated for 10 minutes at 37° C. with 0.5 ml of trypsin/EDTA solution for separation. 0.5 ml of formol solution (0.5% paraformaldehyde, 0.145M NaCl, 1.3 mM EDTA) was added to each culture in order to fix the cells. […] The number of cells was determined with a Coulter counter. The inhibitory action by the test compounds was determined as follows: [formula] with the net proliferation being the number of cells at the end of the test minus the number of cells on day 1 (=24 hour after inoculation). […]

[4] = system: HSMC: human smooth muscle cells; assay: anti-proliferative activity, human smooth muscle cells; assay type: cell-based; conditions: net proliferation, cells collected on the 7th day, 15% fetal calf serum
Protocol: as §2

mouse = assay: acute toxicity determination in the mouse; assay type: in vivo
Protocol: In an acute toxicity determination in the mouse the compound of Example 1 was still not lethal after the intravenous application of 500 mg/kg or after the subcutaneous application of 4000 mg/kg.

[5] = system: bloody lesions of the mucous membrane of the stomach; assay: mucosa-protective properties (ethanol-induced stomach lesions); assay type: in vivo; conditions: 30 mg/kg oral, 30 minutes prior to ethanol, rat, vs control group
Protocol: The test procedure described hereinafter can be used to determine the mucosa-protective properties:
Oral administration of absolute ethanol to male rats in a dosage of 1 ml per rat leads within 1 hour to bloody lesions of the mucous membrane of the stomach. Various dosages of the substances to be tested (suspended in 0.125% carboxymethylcellulose) or the vehicle alone (control) are administered orally to the rats (1 ml per rat) 30 minutes prior to the treatment with ethanol. One hour after the administration of the ethanol the animals are killed, their stomachs are investigated for the presence of lesions and the number and the total extent of such lesions are determined.

[6] = system: citrated human plasma (aPTT, coagulation); assay: aPTT (activated partial thromboplastin time) Test; assay type: biochemical; conditions: concentration which leads to a coagulation time double the control value, 37° C.
Protocol: aPTT (activated partial thromboplastin time) Test (see Walenga et al., CRC Critical Reviews in Laboratory Sciences 22 (4) 361-389 (1986)): 100 μl of citrated human plasma, which contains various concentrations of test compound, is mixed at 37° C. for 8 minutes with 100μ of Activated Thrombofax (ellagic acid as contact activator and bovine cephalin as platelet lipid substitute). 100 μl of pre-warmed 25 mM calcium chloride solution are then added and the coagultion time is measured in a Fibrometer Coagulation Timer.
as §1

thrombin (IIa) = assay: Inhibition of Thrombin in the Chromogenic Substrate Assay; assay type: biochemical; conditions: amidolytic activity of thrombin reduced by 50% vs plasma control; anti-thrombin III, pH 8.4
Protocol: Inhibition of Thrombin or Factor Xa in the Chromogenic Substrate Assay (Teien et al., Thrombosis Research 10, 399-410 (1977)): The determination was effected in a Cobas-Bio centrifugal automatic spectrophotometer. The buffer solution used consisted of 50 mM Tris buffer, 180 mM NaCl, 7.5 mM EDTA Na2, 1% PEG 6000 (a polyethylene glycol of mol. weight 6000) and 0.02% Tween 80 (a polyoxyethylene sorbitanmonooleate), pH 8.4. The test solution consisted of 50 μl of buffer, 30 μl of anti-thrombin III (1 U/ml), and 20 μl of plasma which contained various concentrations of test compounds. 30 μl of sample solution and 20 μl of water with 180 μl of thrombin were added to the test cuvette in the automatic analyzer. After incubation at 37° C. for 240 seconds 60 μl of the p-nitranilide, H-D-Phe-Pip-Arg-NH.pNA, (0.75 mM in water) and 20 μl of water were added. The liberation of pNA (p-nitroaniline) was followed during 60 seconds at 405 nm in 10 second intervals in comparison to water as the blank. The inhibitory activity is given as the IC50 which is the concentration [μg/ml] at which the amidolytic activity of thrombin is reduced by 50% in comparison to the plasma control value.

trestatin A sulfate sodium salt [Example 1]
Chromogenic Substrate (amidolytic activity) IC50, Xa (Factor Xa [1]): 550 mg/L
Coagulation inhibition IC50, Xa (Factor Xa [2]): > 30 mg/L
IC50 Swiss 3T3 [3]: 30 mg/L
IC50 HSCM [4]: 20 mg/L
lethal dose (not lethal after), intravenous (mouse; intravenous): > 500 mg/kg
lethal dose (not lethal after), subcutaneous (mouse; subcutaneous): > 4000 mg/kg
reduction of the number of lesions [5]: 28%
Coagulation inhibition IC50, aPTT [6]: 7 mg/L
Chromogenic Substrate (amidolytic activity) IC50, IIa (thrombin (IIa)): > 1000 mg/L

Heparin [reference compound]
Chromogenic Substrate (amidolytic activity) IC50, Xa (Factor Xa [1]): 2.7 mg/L
Coagulation inhibition IC50, Xa (Factor Xa [2]): 0.6 mg/L
IC50 Swiss 3T3 [3]: 35 mg/L
IC50 HSCM [4]: 45 mg/L
Coagulation inhibition IC50, aPTT [6]: 1.2 mg/L
Chromogenic Substrate (amidolytic activity) IC50, IIa (thrombin (IIa)): 1.9 mg/L
